# Data as given in PubChem BioAssay AID1259371 (The Scripps Research Institute Molecular Screening Center, 2018).
# pIC50: −log10 of the molar value. Activity calls are given as the source filed them. The rule behind the calls is not given here.
# Molecular target: Microphthalmia-associated transcription factor (Homo sapiens) (UniProt O75030)
# Test: compounds blocking human MITF signal – biochemical, AlphaScreen, dose response (AID 1259371)
# Conditions: AlphaScreen biochemical MITF assay, signal inhibition
# Chain of Microphthalmia-associated transcription factor (Homo sapiens) (O75030 whole entry, looked up): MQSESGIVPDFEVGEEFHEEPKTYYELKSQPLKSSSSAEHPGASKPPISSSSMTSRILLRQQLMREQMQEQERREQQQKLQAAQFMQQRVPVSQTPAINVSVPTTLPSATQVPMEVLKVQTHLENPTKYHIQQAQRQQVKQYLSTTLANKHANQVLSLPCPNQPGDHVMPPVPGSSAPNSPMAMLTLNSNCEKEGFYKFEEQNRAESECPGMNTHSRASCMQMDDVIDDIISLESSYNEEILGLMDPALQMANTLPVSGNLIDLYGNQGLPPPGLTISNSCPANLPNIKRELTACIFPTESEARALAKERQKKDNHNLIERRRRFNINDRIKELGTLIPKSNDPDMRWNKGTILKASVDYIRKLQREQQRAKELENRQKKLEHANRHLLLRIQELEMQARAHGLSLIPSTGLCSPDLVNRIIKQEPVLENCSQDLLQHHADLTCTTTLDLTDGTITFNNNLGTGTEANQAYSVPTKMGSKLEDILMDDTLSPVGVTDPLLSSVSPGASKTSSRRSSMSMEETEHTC
Structure (SMILES),pIC50,IC50
O=C1OC(c2cc(C3=N/C(=C\c4ccccc4)C(=O)O3)cc(C3=N/C(=C/c4ccccc4)C(=O)O3)c2)=N/C1=C\c1ccccc1,6.09,
COc1ccc(CC2NCCc3cc(OC)c(OC)cc32)cc1OC (stereo unspecified),7.40,
COc1c(O)cc(O)cc1O,,inactive
CN1CC(=O)N2CCN(C(=O)NC3CCCCC3)C[C@@H]2C1=O,,inactive
c1ccc2c(c1)OCC(c1nc3c(-c4ccncc4)cncc3[nH]1)O2 (stereo unspecified),,> 2160 nM (inactive)
O=C(OC1CCOC1=O)c1ccc(S(=O)(=O)NCc2ccco2)cc1 (stereo unspecified),,> 2370 nM (inactive)
O=C(Nc1ccc(C(=O)Nc2ccc(C(=O)Nc3ccc(S(=O)(=O)O)c4cc(S(=O)(=O)O)cc(S(=O)(=O)O)c34)cc2)cc1)Nc1ccc(C(=O)Nc2ccc(C(=O)Nc3ccc(S(=O)(=O)O)c4cc(S(=O)(=O)O)cc(S(=O)(=O)O)c34)cc2)cc1,6.01,
O=C(OCCCC(=O)N1CCOCC1)c1cc(-c2ccco2)nc2ccccc12,,inactive
CC[C@@H]1NC(=O)[C@H]2CN(C(=O)NC3CCCCC3)CCN2C1=O,6.57,
O=C1N[C@@H](CC2CCCCC2)C(=O)N2CCN(C(=O)NCc3ccccc3)C[C@H]12,,> 2160 nM (inactive)
COC(=O)CN(CCN(CC(=O)O)CC(=O)OC)CC(=O)O,,inactive
O=C(O)c1ccc(CS(=O)(=O)c2ccccc2)o1,6.84,
O=C(CCCCC1SCC2NC(=O)NC21)NC1(c2ccc(F)cc2)CCCC1 (stereo unspecified),,inactive
CC(C)[C@@H]1NC(=O)[C@H]2CN(C(=O)NC3CCCCC3)CCN2C1=O,,> 2160 nM (inactive)
COC(=O)CSc1nnc(-c2ccco2)n1Cc1ccco1,7.00,
Cc1cccc(NC(=O)c2ccc(NS(=O)(=O)c3ccc4[nH]cc(C(=O)O)c(=O)c4c3)cc2)c1,,> 1580 nM (inactive)
O=C(OC1CCCC1=O)c1ccc(N2CCCC2=O)cc1 (stereo unspecified),,inactive
NC(=O)COC(=O)c1cc2c(s1)CCC2,,inactive
CCOc1ccc(CN2CCN(Cc3cccnc3)CC2)cc1,,> 5780 nM (inactive)
CCN(CC)c1ccc(C(c2c(C)[nH][nH]c2=O)c2c(C)[nH][nH]c2=O)cc1,6.54,
C=CCc1cc(Cl)ccc1OCCOCCNCCOC,,> 6480 nM (inactive)
c1ccc2c(c1)ncn2CC1CCN(Cc2cn3ccccc3n2)CC1,,inactive
NC(=O)c1cncc(-c2cccs2)c1,6.49,
COc1ccc2c(c1)CC(C(=O)Nc1ccc(-c3cn[nH]c3)cc1OCC#N)CO2 (stereo unspecified),,inactive
CC(=C/C(=O)O)/C=C/c1ccoc1,6.80,
C=C1c2cccc(O)c2C(O)=C2C(=O)[C@]3(O)C(O)=C(C(N)=O)C(=O)[C@@H](N(C)C)[C@@H]3[C@@H](O)[C@H]12,7.40,

Structure (SMILES),pIC50,IC50
CC(C)(C)c1ccc(OCCn2cncn2)c(Cl)c1,,> 6480 nM (inactive)
Cc1cc2c(c(=O)[nH]1)C(=O)O/C2=C\c1ccc(C)o1,6.48,
COc1cc(N2CCOCC2)ccc1Nc1cc(Nc2ccccc2-n2cccn2)c(C(F)(F)F)cn1,,inactive
CNC(=O)Nc1ccc2nc(-c3ccco3)c(-c3ccco3)nc2c1,7.32,
COc1ccc2c(c1)C1NC(=S)N(c3cccc(C)c3)C(C)(O2)C1C(=O)Nc1ccc(C)cc1C (stereo unspecified),,> 5710 nM (inactive)
CC[C@H](C)[C@@H]1NC(=O)[C@H]2CN(C(=O)NC3CCCCC3)CCN2C1=O,,> 2160 nM (inactive)
O=C(O)C1CC=CCC1C(=O)Nc1nncs1 (stereo unspecified),,inactive
CC(O)C(=O)N/N=C/C=C/c1ccc([N+](=O)[O-])o1 (stereo unspecified),,inactive
O=C1N[C@H](Cc2ccc(O)cc2)C(=O)N2CCN(C(=O)NCc3ccccc3)C[C@H]12,,inactive
O=C(O)c1cc(N=Cc2ccco2)ccc1O,6.11,
N#C/C(=C/c1ccco1)c1cccc(F)c1,,inactive
O=c1cc(/C=C/c2ccc(O)cc2)nc2nn[nH]n12,,inactive
CCN(C(=O)C1COc2ccccc2O1)C12CC3CC(CC(C3)C1)C2 (stereo unspecified),,inactive
COC(C)(C)CNC(=O)C1CCN(C2CCN(Cc3cccc(C)n3)CC2)CC1,,inactive
O=C1N[C@@H](Cc2ccccc2)C(=O)N2CCN(C(=O)NCc3ccccc3)C[C@H]12,,> 6480 nM (inactive)
C[C@@H](O)[C@@H]1NC(=O)[C@H]2CN(C(=O)NCc3ccccc3)CCN2C1=O,,> 2160 nM (inactive)
O=C(Nc1ccc(-c2cn[nH]c2)c(C(F)(F)F)c1)C1COc2ccccc2O1 (stereo unspecified),,> 2160 nM (inactive)
O=c1c2ccccc2nc(-c2ccccc2)n1-c1ccccc1O,,> 6500 nM (inactive)
O=C1N[C@@H](Cc2ccccc2)C(=O)N2CCN(C(=O)NC3CCCCC3)C[C@H]12,,inactive
NC(=O)c1ccc(N=Cc2cc3c(cc2[N+](=O)[O-])OCO3)cc1,,inactive
O=C(c1ccc(=O)oc1)N1CCc2ccccc21,,inactive
NC(=O)NC(=O)COC(=O)c1c2c(nc3ccccc13)/C(=C\c1ccco1)CCC2,6.46,
COC(=O)CSc1nnc(-c2cnccn2)n1C,,> 6480 nM (inactive)
COc1cc(OC)c(CN2CCCC(O)C2)cc1Br (stereo unspecified),,> 6480 nM (inactive)
CC(C)NC(=O)/C(C#N)=C/c1ccc(-c2ccc([N+](=O)[O-])cc2Br)o1,6.50,
